The test system of one series is human hepatocytes. Description: Metabolic stability / conversion to apomorphine on incubation with human hepatocytes.
For series [1] the following is noted: in NaCl solution; cited from earlier work.
The conditions of series [2]: single dose; cited from earlier work.
For series [3] the following is noted: cited from earlier work.
The conditions of series [4]: in vivo; cited from earlier work.

This is an account of results in US20250361252A1 (EVER Neuro Pharma GmbH, priority 2022, published 2025).

With apomorphine monophosphate, the “formation of apomorphine in cell-free control group” value with human hepatocytes (cell-free negative control) is recorded as “no significant formation of apomorphine”. In the series with human hepatocytes (human hepatocytes), the “conversion of prodrug into apomorphine” value was “rapidly converted into apomorphine”, the “half-life of apomorphine monophosphate” value was 33 min and the “time of highest amount of apomorphine found” value stood at 10 min. Also, the “apomorphine monophosphate converted to apomorphine” value in the series on human hepatocytes (human hepatocytes, within 10 min) was “about 30%”. The apomorphine monophosphate consumed result in the series on human hepatocytes (human hepatocytes, within 60 minutes) is “about 75%”.
For orientation: solubility means the dissolved amount per volume that the medium holds. Regarding `CN1CCc2cccc3c2[C@H]1Cc1ccc(O)c(O)c1-3` [apomorphine], the solubility in series [1] was < 10000 µg/mL. Besides, the “duration of effect (mean)” value in series [2] is 40 min. Also, in series [3] (subcutaneous infusion therapy, meta-analysis), the “incidence of nodule formation” value was 70%. Besides, the “patients terminating therapy because of irritations” value in series [3] (subcutaneous infusion, within one year) is 70%.
As to “Apomorphine Monophosphate Potassium Salt [VIR-1-097-K]”, the “solubility in water” value was “highly soluble in water”.
Consider `N[C@@H](Cc1ccc(O)c(O)c1)C(=O)O` [L-dopa], for which the plasma half-life in series [4] is 60 to 90 min.
In the case of “Apomorphine Monophosphate Calcium Salt [VIR-1-097-Ca]”, the “solubility in water” value is “Reduced solubility in water”.
